molecular target: T1, TGF-β Type I (RIT204D) receptor (Homo sapiens, UniProt P36897, T204D); experiment: TGF-β Receptor I (RIT204D) in vitro kinase reaction; format: biochemical; settings: 6×-HIS cytoplasmic kinase domain, 4 uM ATP, 30° C., 1 hr
T1 construct: The 6×-HIS tagged cytoplasmic kinase domain of each receptor was expressed and purified from Sf9 insect cell lysates; 6xHis; made in house; host or cells: Sf9 insect cells
T1 sequence (P36897 148-503 T204D limits assumed): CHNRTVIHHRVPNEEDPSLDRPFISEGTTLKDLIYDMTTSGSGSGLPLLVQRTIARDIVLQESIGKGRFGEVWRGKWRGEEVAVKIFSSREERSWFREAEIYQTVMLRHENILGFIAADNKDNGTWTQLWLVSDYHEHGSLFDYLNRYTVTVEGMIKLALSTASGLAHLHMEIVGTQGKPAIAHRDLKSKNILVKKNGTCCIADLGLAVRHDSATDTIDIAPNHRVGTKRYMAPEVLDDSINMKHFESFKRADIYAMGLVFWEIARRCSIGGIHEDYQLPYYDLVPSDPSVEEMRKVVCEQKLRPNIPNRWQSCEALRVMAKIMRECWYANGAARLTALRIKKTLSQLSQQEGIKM
Experimental: (§1) TGF-β Receptor I and II Purification and in vitro Kinase Reactions
(§2) For TGF-β Type I (RIT204D) and Type II (RII WT) Receptors: The 6×-HIS tagged cytoplasmic kinase domain of each receptor was expressed and purified from Sf9 insect cell lysates as briefly described below:
(§3) Cell pellets after 48-72 hrs of infection were lysed in lysis buffer (LB: 50 mM Tris pH 7.5, 150 mM NaCl, 50 mM NaF, 0.5% NP40 with freshly added 20 mM, β-mercaptoethanol, 10 mM imidazole, 1 mM PMSF, 1×EDTA-free Complete Protease Inhibitor (Boehringer Mannheim).
(§4) Reactions: 170-200 nM enzyme in 1×KB, compound dilution series in 1×KB/16% DMSO (20 uM to 1 nM final concentration with 4% DMSO final concentration), reactions started by adding ATP mix (4 uM ATP/1 uCi ^33P-[…]-ATP final concentrations) in 1×KB.
(§5) Reactions were incubated at 30° C. for 1 hr RIT204D or 40 min for RII WT. Reactions were stopped and quantitated using standard TCA/BSA precipitation onto Millipore FB glass fiber filter plates and by liquid scintillation counting on a MicroBeta JET.

IC50, < 20 µM:
Cc1cccc(-c2nn3c(c2-c2cccnc2)CCC3)n1 [2-(6-methyl-pyridin-2-yl)-3-pyridin-3-yl-5,6-dihydro-4H-pyrrolo[1,2-b]pyrazole], Cc1cccc(-c2nn3c(c2-c2ccc(F)cc2)CCC3)n1 [3-(4-Fluorophenyl)-2-(6-methylpyridin-2-yl)-5,6-dihydro-4H-pyrrolo[1,2-b]pyrazole], COc1ccc(-c2c(-c3cccc(C)n3)nn3c2CCC3)cc1 [3-(4-Methoxyphenyl)-2-(6-methylpyridin-2-yl)-5,6-dihydro-4H-pyrrolo[1,2-b]pyrazole], COC(=O)/C=C/c1ccc2c(-c3c(-c4cccc(C)n4)nn4c3CCC4)ccnc2c1 [3-{4-[2-(6-Methyl-pyridin-2-yl)-5,6-dihydro-4H-pyrrolo[1,2-b]pyrazol-3-yl]-quinolin-7-yl}-acrylic acid methyl ester], CN(C)CCCN(C)C(=O)c1ccc2c(-c3c(-c4ccccn4)nn4c3CCC4)ccnc2c1 [4-(2-Pyridin-2-yl-5,6-dihydro-4H-pyrrolo[1,2-H]pyrazol-3-yl)-quinoline-7-carboxylic acid(3-dimethylamino-propyl)-methyl-amide], CCCNC(=O)c1ccc2c(-c3c(-c4ccccn4)nn4c3CCC4)ccnc2c1 [4-(2-Pyridin-2-yl-5,6-dihydro-4H-pyrrolo[1,2-b]pyrazol-3-yl)-quinoline-7-carboxylic acid propylamide], c1csc(-c2nn3c(c2-c2ccnc4ccccc24)CCC3)c1 [4-(2-Thiophen-2-yl-5,6-dihydro-4H-pyrrolo[1,2-b]pyrazol-3-yl)quinoline], Clc1cccc(-c2nn3c(c2-c2ccnc4ccccc24)CCCC3)c1 [4-[2-(3-Chloro-phemyl)-4,5,6,7-tetrahydro-pyrazolo[1,5-alpyridin-3-y]-quinoline], FC(F)(F)Oc1cccc(-c2nn3c(c2-c2ccnc4ccccc24)CCC3)c1 [4-[2-(3-Trifluoromethoxy-phenyl)-5,6-dihydro-4H-pyrrolo[1,2-b]pyrazol-3-yl]-quinoline], c1ccc(Cc2cccc(-c3nn4c(c3-c3ccnc5ccccc35)CCC4)n2)cc1 [4-[2-(6-Benzyl-pyridin-2-yl)-5,6-dihydro-4H-pyrrolo[1,2-b]pyrazol-3-yl]-quinoline], CS(=O)(=O)c1ccc2c(-c3c(-c4ccccn4)nn4c3CCC4)ccnc2c1 [7-Methanesulfonyl-4-(2-pyridin-2-yl-5,6-dihydro-4H-pyrrolo[1,2-b]pyrazol-3-yl)-quinoline], CN(C)CCCCOc1cc(-c2c(-c3ccccn3)nn3c2CCC3)ccn1 [Dimethyl-{4-[4-(2-pyridin-2-yl-5,6-dihydro-4H-pyrrolo[1,2-b]pyrazol-3-yl)-pyridin-2-yloxy]-butyl}-amine], CN(C)CCCNc1cc(-c2c(-c3ccccn3)nn3c2CCC3)ccn1 [N,N-Dimethyl-N′-[4-(2-pyridin-2-yl-5,6-dihydro-4H-pyrrolo[1,2-b]pyrazol-3-yl)-pyridin-2-yl]-propane-1,3-diamine], CC(=O)NCCCOc1ccc2c(-c3c(-c4ccccn4)nn4c3CCC4)ccnc2c1 [N-{3-[4-(2-Pyridin-2-yl-5,6-dihydro-4H-pyrrolo[1,2-b]pyrazol-3-yl)-quinolin-7-yloxy]-propyl}-acetamide]

molecular target: T2, TGF-β Type II (RII WT) receptor (Homo sapiens, UniProt P37173); experiment: TGF-β Receptor II (RII WT) in vitro kinase reaction; format: biochemical; settings: 6×-HIS cytoplasmic kinase domain, 4 uM ATP, 30° C., 40 min
T2 construct: The 6×-HIS tagged cytoplasmic kinase domain of each receptor was expressed and purified from Sf9 insect cell lysates; 6xHis; made in house; host or cells: Sf9 insect cells
T2 sequence (P37173 244-544 limits assumed): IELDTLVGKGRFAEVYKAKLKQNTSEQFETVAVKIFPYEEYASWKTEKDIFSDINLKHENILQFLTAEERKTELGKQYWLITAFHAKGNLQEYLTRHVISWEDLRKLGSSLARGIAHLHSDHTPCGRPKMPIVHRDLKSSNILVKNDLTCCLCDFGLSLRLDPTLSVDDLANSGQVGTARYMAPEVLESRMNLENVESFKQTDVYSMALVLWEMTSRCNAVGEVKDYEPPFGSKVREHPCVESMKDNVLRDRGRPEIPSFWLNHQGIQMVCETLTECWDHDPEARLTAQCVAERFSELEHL
Experimental: as §1, §2, §3
Cell lysates were clarified: by centrifugation and […] filtered prior to purification by Ni/NTA affinity chromatography (Qiagen).
Equilibrate with 10 CV of LB, load sample, wash with 10 CV RIPA buffer (50 mM Tris pH 7.5, 150 mM NaCl, 1% NP40, 1 mM EDTA, 0.25% sodium deoxycholate, added fresh 20 mM β-mercaptoethanol, 1 mM PMSF), wash with 10 CV LB, wash with 10 CV 1×KB (50 mM Tris pH 7.5, 150 mM NaCl, 4 mM MgCl2, 1 mM NaF, 2 mM β-mercaptoethanol), elute with a linear gradient of 1×KB containing 200 mM Imidazole.
Both enzymes were approximately 90% pure and had autophosphorylation activity.
as §4, §5

IC50, < 20 µM:
OC1CCCc2c(-c3ccnc4ccccc34)c(-c3ccccn3)nn21 (centres unmarked) [2-Pyridin-2-yl-3-quinolin-4-yl-pyrazolo[1,5-a]piperidin-7-ol], O=C1OCCN1c1ccc2c(-c3c(-c4ccccn4)nn4c3CCC4)ccnc2c1 [3-[4-(2-Pyridin-2-yl-5,6-dihydro-4H-pyrrolo[1,2-b]pyrazol-3-yl)-quinolin-7-yl]-oxazolidin-2-one], Cc1cccc(-c2nn3c(c2-c2ccnc4cc(C=CC(=O)O)ccc24)CCC3)n1 [3-{4-[2-(6-Methyl-pyridin-2-yl)-5,6-dihydro-4H-pyrrolo[1,2-b]pyrazol-3-yl]-quinolin-7-yl}-acrylic acid], Nc1ccc2c(-c3c(-c4ccccn4)nn4c3CCC4)ccnc2c1 [4-(2-Pyridin-2-yl-5,6-dihydro-4H-pyrrolo[1,2-b]pyrazol-3-yl)-quinolin-7-ylamine], O=C(NC1CC1)c1ccc2c(-c3c(-c4ccccn4)nn4c3CCC4)ccnc2c1 [4-(2-Pyridin-2-yl-5,6-dihydro-4H-pyrrolo[1,2-b]pyrazol-3-yl)-quinoline-7-carboxylic acid cyclopropylamide], O=C(Nc1ccccn1)c1ccc2c(-c3c(-c4ccccn4)nn4c3CCC4)ccnc2c1 [4-(2-Pyridin-2-yl-5,6-dihydro-4H-pyrrolo[1,2-b]pyrazol-3-yl)-quinoline-7-carboxylic acid pyridin-2-ylamide], CCC(C)CNC(=O)c1ccc2c(-c3c(-c4ccccn4)nn4c3CCC4)ccnc2c1 (centres unmarked) [4-(2-Pyridin-2-yl-5,6-dihydro-4H-pyrrolo[1,2-b]pyrazol-3-yl)-quinoline-7-carboxylic acid(2-methyl-butyl)-amide], FC(F)(F)c1cccc(-c2nn3c(c2-c2ccnc4ccccc24)CCC3)c1 [4-[2-(3-Trifluoromethylphenyl)-5,6-dihydro-4H-pyrrolo[1,2-b]pyrazol-3-yl]-quinoline], Cc1cccc(-c2nn3c(c2-c2ccnc4ccc(-c5ccccc5)cc24)CCC3)n1 [4-[2-(6-Methyl-pyridin-2-yl)-5,6-dihydro-4H-pyrrolo[1,2-b]pyrazol-3-yl]-6-phenyl-quinoline], COc1cccc(C2Cc3c(-c4ccnc5ccccc45)c(-c4ccccn4)nn3C2)c1 (centres unmarked) [4-[5-(3-Methoxy-phenyl)-2-pyridin-2-yl-5,6-dihydro-4H-pyrrolo[1,2-b]pyrazol-3-yl]-quinoline], ClCCCOc1ccc2c(-c3c(-c4ccccn4)nn4c3CCC4)ccnc2c1 [7-(3-Chloro-propoxy)-4-(2-pyridin-2-yl-5,6-dihydro-4H-pyrrolo[1,2-b]pyrazol-3-yl)-quinoline], CC(C)c1cc(-c2c(-c3ccccn3)nn3c2CCC3)c2ccc(Br)cc2n1 [7-Bromo-2-isopropyl-4-(2-pyridin-2-yl-5,6-dihydro-4H-pyrrolo[1,2-b]pyrazol-3-yl)-quinoline], CN(C)CCOc1ccc2c(-c3c(-c4ccccn4)nn4c3CCC4)ccnc2c1 [Dimethyl-{2-[4-(2-pyridin-2-yl-5,6-dihydro-4H-pyrrolo[1,2-b]pyrazol-3-yl)-quinolin-7-yloxy]-ethyl}-amine], CCN(C)CCCOc1ccc2c(-c3c(-c4ccccn4)nn4c3CCC4)ccnc2c1 [Ethyl-methyl-{3-[4-(2-pyridin-2-yl-5,6-dihydro-4H-pyrrolo[1,2-b]pyrazol-3-yl)-quinolin-7-yloxy]-propyl}-amine], Cc1cccc(-c2nn3c(c2-c2ccnc4cc(Br)ccc24)CCC3CO)n1 (centres unmarked) [[3-(7-Bromo-quinolin-4-yl)-2-(6-methyl-pyridin-2-yl)-5,6-dihydro-4H-pyrrolo[1,2-b]pyrazol-6-yl]3-methanol]

From patent US7087626B2, “Pyrrole derivatives as pharmaceutical agents” (Eli Lilly and Company, priority 2001, dated 2006)
